What follows are compounds tested on Chenopodium album (assay: Test Example 3: herbicidal effect test by treatment of dry field farming soil (one day after seeding)). Conditions: 120 g/10a active ingredient, evaluated 14 days after treatment.
Assay type: in vivo
Experimental: (§1) This test was conducted in a double system per one agent solution concentration area, and the herbicidal rates (%) were determined by the following equation (Math. 1) on 14 days after the treatment with the agents. Herbicidal Rate (%)={1-(Average Dry Weight (g) of Plant of Treated Area)/(Average Dry Weight (g) of Plant of Untreated Area)}×100 [Math. 1]
(§2) Herbicidal Effect Test by Treatment of Dry Field Farming Soil
(§3) Pots with a size of 36 cm^2 were filled with a dry field farming soil (alluvium). The soil of the top layer of 1 cm and seeds of weeds, namely southern crabgrass, Echinochloa crus-galli, Chenopodium album and Amaranthus viridis, 20 seeds each, were evenly mixed, and the top layer was gently pressed. Emulsions prepared using the compounds in Table 5 below according to Formulation Example 5 were diluted with water one day after seeding, and the water-diluted agent solutions were sprayed to the soil surfaces at a ratio of 100 liters per 10 ares. The converted amount of the applied active ingredient corresponded to 120 g per 10 ares. The herbicidal effects were evaluated by the same standard as that in Test Example 1 on 14 days after the treatment with the agents. […] The compound numbers in Table 5 are the same as those in Table 1 and Table 2 above.

Row | SMILES | herbicidal rate, Chenopodium album
1 | Cc1c(Cc2ccccc2NS(=O)(=O)C(F)(F)F)c(=O)on1CC1(C)COC1 [Compound 1-229] | 40%
2 | Cc1c(Cc2ccccc2NS(=O)(=O)C(F)(F)F)c(=O)on1C(C)c1ccccc1 (stereo not drawn) [Compound 1-203] | 40%
3 | Cc1c(Cc2ccccc2N(S(=O)(=O)C(F)(F)F)S(=O)(=O)C(F)(F)F)c(=O)on1CCCc1ccccc1 [Compound 1-1048] | 40%

Each compound was assayed on Amaranthus viridis in the same assay as above. Conditions: 120 g/10a active ingredient, evaluated 14 days after treatment.
Assay type: in vivo
Experimental: as §1, §2, §3

Row | SMILES | herbicidal rate, Amaranthus viridis
4 | Cc1c(Cc2ccccc2NS(=O)(=O)C(F)(F)F)c(=O)on1CC1(C)COC1 [Compound 1-229] | 60%
5 | Cc1c(Cc2ccccc2NS(=O)(=O)C(F)(F)F)c(=O)on1C(C)c1ccccc1 (stereo not drawn) [Compound 1-203] | 40%
6 | Cc1c(Cc2ccccc2N(S(=O)(=O)C(F)(F)F)S(=O)(=O)C(F)(F)F)c(=O)on1CCCc1ccccc1 [Compound 1-1048] | 40%

These compounds were tested on southern crabgrass in the same assay as above. Conditions: 120 g/10a active ingredient, evaluated 14 days after treatment.
Assay type: in vivo
Experimental: as §1, §2, §3

Row | SMILES | herbicidal rate, southern crabgrass
7 | Cc1c(Cc2ccccc2NS(=O)(=O)C(F)(F)F)c(=O)on1CC1(C)COC1 [Compound 1-229] | 60%
8 | Cc1c(Cc2ccccc2NS(=O)(=O)C(F)(F)F)c(=O)on1C(C)c1ccccc1 (stereo not drawn) [Compound 1-203] | 90%
9 | Cc1c(Cc2ccccc2N(S(=O)(=O)C(F)(F)F)S(=O)(=O)C(F)(F)F)c(=O)on1CCCc1ccccc1 [Compound 1-1048] | 0%

The compounds below were run on Echinochloa crus-galli in the same assay as above. Conditions: 120 g/10a active ingredient, evaluated 14 days after treatment.
Assay type: in vivo
Experimental: as §1, §2, §3

Row | SMILES | herbicidal rate, Echinochloa crus-galli
10 | Cc1c(Cc2ccccc2NS(=O)(=O)C(F)(F)F)c(=O)on1CC1(C)COC1 [Compound 1-229] | 40%
11 | Cc1c(Cc2ccccc2NS(=O)(=O)C(F)(F)F)c(=O)on1C(C)c1ccccc1 (stereo not drawn) [Compound 1-203] | 60%
12 | Cc1c(Cc2ccccc2N(S(=O)(=O)C(F)(F)F)S(=O)(=O)C(F)(F)F)c(=O)on1CCCc1ccccc1 [Compound 1-1048] | 40%

The compounds below were run on broad leaf weeds (Lindernia pyxidaria and Monochoria vaginalis) (assay: Test Example 1: herbicidal effect test by treatment of rice paddy soil (immediately after seeding)). Conditions: Lindernia pyxidaria, 120 g/10a active ingredient, dry weight vs untreated area, 14 days after treatment.
Assay type: in vivo
Outline: (§4)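 Flooded paddy pot test in a glass greenhouse: emulsion diluted in water, dropped at 120 g a.i. per 10 ares just after sowing, water depth kept about 3 cm. Dry-weight reduction relative to untreated plants is scored at 14 days.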

Row | SMILES | Herbicidal rate (%) Lindernia pyxidaria
13 | Cc1c(Cc2ccccc2NS(=O)(=O)C(F)(F)F)c(=O)on1CC1(C)COC1 [Compound 1-229] | 80%
14 | Cc1c(Cc2ccccc2NS(=O)(=O)C(F)(F)F)c(=O)on1C(C)c1ccccc1 (stereo not drawn) [Compound 1-203] | 100%
15 | Cc1c(Cc2ccccc2N(S(=O)(=O)C(F)(F)F)S(=O)(=O)C(F)(F)F)c(=O)on1CCCc1ccccc1 [Compound 1-1048] | 80%

Same assay, conditions: Monochoria vaginalis, 120 g/10a active ingredient, dry weight vs untreated area, 14 days after treatment

Row | SMILES | Herbicidal rate (%) Monochoria vaginalis
16 | Cc1c(Cc2ccccc2NS(=O)(=O)C(F)(F)F)c(=O)on1CC1(C)COC1 [Compound 1-229] | 100%
17 | Cc1c(Cc2ccccc2NS(=O)(=O)C(F)(F)F)c(=O)on1C(C)c1ccccc1 (stereo not drawn) [Compound 1-203] | 100%
18 | Cc1c(Cc2ccccc2N(S(=O)(=O)C(F)(F)F)S(=O)(=O)C(F)(F)F)c(=O)on1CCCc1ccccc1 [Compound 1-1048] | 60%

Each compound was assayed on Scirpus juncoides in the same assay as above. Conditions: 120 g/10a active ingredient, dry weight vs untreated area, 14 days after treatment.
Assay type: in vivo
Outline: as §4

Row | SMILES | Herbicidal rate (%) Scirpus juncoides
19 | Cc1c(Cc2ccccc2NS(=O)(=O)C(F)(F)F)c(=O)on1CC1(C)COC1 [Compound 1-229] | 90%
20 | Cc1c(Cc2ccccc2NS(=O)(=O)C(F)(F)F)c(=O)on1C(C)c1ccccc1 (stereo not drawn) [Compound 1-203] | 90%
21 | Cc1c(Cc2ccccc2N(S(=O)(=O)C(F)(F)F)S(=O)(=O)C(F)(F)F)c(=O)on1CCCc1ccccc1 [Compound 1-1048] | 80%

The compounds below were run on Echinochloa crus-galli in the same assay as above. Conditions: 120 g/10a active ingredient, dry weight vs untreated area, 14 days after treatment.
Assay type: in vivo
Outline: as §4

Row | SMILES | Herbicidal rate (%) Echinochloa crus-galli
22 | Cc1c(Cc2ccccc2NS(=O)(=O)C(F)(F)F)c(=O)on1CC1(C)COC1 [Compound 1-229] | 70%
23 | Cc1c(Cc2ccccc2NS(=O)(=O)C(F)(F)F)c(=O)on1C(C)c1ccccc1 (stereo not drawn) [Compound 1-203] | 90%
24 | Cc1c(Cc2ccccc2N(S(=O)(=O)C(F)(F)F)S(=O)(=O)C(F)(F)F)c(=O)on1CCCc1ccccc1 [Compound 1-1048] | 90%

What follows are compounds tested on broad leaf weeds (Lindernia pyxidaria and Monochoria vaginalis) (assay: Test Example 2: herbicidal effect test by treatment during growing period in paddy rice cultivation (seven days after seeding)). Conditions: Lindernia pyxidaria, 120 g/10a active ingredient, assessed 14 days after treatment, dry weight vs untreated area.
Assay type: in vivo
Outline: (§5)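 Seeds sown 0–1 cm deep in puddled, fertilised paddy soil with about 3 cm standing water in a glass greenhouse. Diluted emulsion dropped into the water seven days after seeding at 120 g active ingredient per 10 ares. Herbicidal rate (%) from mean dry weight vs untreated, duplicate, 14 days after treatment.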

Row | SMILES | Herbicidal rate (%) Lindernia pyxidaria
25 | Cc1c(Cc2ccccc2NS(=O)(=O)C(F)(F)F)c(=O)on1CC1(C)COC1 [Compound 1-229] | 60%
26 | Cc1c(Cc2ccccc2NS(=O)(=O)C(F)(F)F)c(=O)on1C(C)c1ccccc1 (stereo not drawn) [Compound 1-203] | 90%
27 | Cc1c(Cc2ccccc2N(S(=O)(=O)C(F)(F)F)S(=O)(=O)C(F)(F)F)c(=O)on1CCCc1ccccc1 [Compound 1-1048] | 60%

Same assay, conditions: Monochoria vaginalis, 120 g/10a active ingredient, assessed 14 days after treatment, dry weight vs untreated area

Row | SMILES | Herbicidal rate (%) Monochoria vaginalis
28 | Cc1c(Cc2ccccc2NS(=O)(=O)C(F)(F)F)c(=O)on1CC1(C)COC1 [Compound 1-229] | 90%
29 | Cc1c(Cc2ccccc2NS(=O)(=O)C(F)(F)F)c(=O)on1C(C)c1ccccc1 (stereo not drawn) [Compound 1-203] | 90%
30 | Cc1c(Cc2ccccc2N(S(=O)(=O)C(F)(F)F)S(=O)(=O)C(F)(F)F)c(=O)on1CCCc1ccccc1 [Compound 1-1048] | 60%

These compounds were tested on Scirpus juncoides in the same assay as above. Conditions: 120 g/10a active ingredient, assessed 14 days after treatment, dry weight vs untreated area.
Assay type: in vivo
Outline: as §5

Row | SMILES | Herbicidal rate (%) Scirpus juncoides
31 | Cc1c(Cc2ccccc2NS(=O)(=O)C(F)(F)F)c(=O)on1CC1(C)COC1 [Compound 1-229] | 90%
32 | Cc1c(Cc2ccccc2NS(=O)(=O)C(F)(F)F)c(=O)on1C(C)c1ccccc1 (stereo not drawn) [Compound 1-203] | 90%
33 | Cc1c(Cc2ccccc2N(S(=O)(=O)C(F)(F)F)S(=O)(=O)C(F)(F)F)c(=O)on1CCCc1ccccc1 [Compound 1-1048] | 40%

These compounds were tested on Echinochloa crus-galli in the same assay as above. Conditions: 120 g/10a active ingredient, assessed 14 days after treatment, dry weight vs untreated area.
Assay type: in vivo
Outline: as §5

Row | SMILES | Herbicidal rate (%) Echinochloa crus-galli
34 | Cc1c(Cc2ccccc2NS(=O)(=O)C(F)(F)F)c(=O)on1CC1(C)COC1 [Compound 1-229] | 70%
35 | Cc1c(Cc2ccccc2NS(=O)(=O)C(F)(F)F)c(=O)on1C(C)c1ccccc1 (stereo not drawn) [Compound 1-203] | 90%
36 | Cc1c(Cc2ccccc2N(S(=O)(=O)C(F)(F)F)S(=O)(=O)C(F)(F)F)c(=O)on1CCCc1ccccc1 [Compound 1-1048] | 90%
